Here are results for three compounds from ChEMBL document CHEMBL1129013, “Benzopyran selective estrogen receptor modulators (SERMs): Pharmacological effects and structural correlation with raloxifene” (1996).

Molecules are shown by their SMILES.

Test [1] has as its system Rattus norvegicus. The test can be described thus: Reduction in body weight in rat model at dose 1.0 mg/kg (p.o.). Format: functional. The following applies: route oral.
In test [2] the test system is Rattus norvegicus. The test is described as follows: Reduction in body weight in rat model at dose 0.01 mg/kg (p.o.). To be noted: route oral. Type of test: functional.
Test [3] has as its system Rattus norvegicus. The test is described as follows: Reduction in serum cholesterol in rat model at dose 10.0 mg/kg (p.o.). Set-up: dose 10 mg/kg. Type of test: functional, organism-based.
For test [4], the system named is Rattus norvegicus. The test can be described thus: Reduction in uterine weight in rat model at dose 0.01 mg/kg (p.o.). Type of test: functional. The following applies: route oral.
In test [5] the test system is Rattus norvegicus. The test is described as follows: Reduction in uterine weight in rat model at dose 0.1 mg/kg (p.o.). The following applies: route oral. Type of test: functional.
The test system of test [6] is Rattus norvegicus. The test is described as follows: Reduction in uterine weight in rat model at dose 10.0 mg/kg (p.o.). Format: functional. To be noted: route oral.
Test [7] relates to Rattus norvegicus. The test can be described thus: Reduction in serum cholesterol in rat model at dose 1.0 mg/kg (p.o.). Type of test: functional, organism-based. Set-up: dose 1 mg/kg.
Test [8] relates to Rattus norvegicus. The test can be described thus: Reduction in serum cholesterol in rat model at dose 0.01 mg/kg (p.o.). Set-up: dose 0.01 mg/kg. Type of test: functional, organism-based.
Test [9] has as its system Rattus norvegicus. The test is described as follows: Reduction in uterine weight in rat model at dose 1.0 mg/kg (p.o.). Format: functional. The following applies: route oral.
Test [10] has as its system Rattus norvegicus. The test is described as follows: Reduction in body weight in rat model at dose 10.0 mg/kg (p.o.). Format: functional. To be noted: route oral.
Test [11] deals with Rattus norvegicus. The test can be described thus: Reduction in body weight in rat model at dose 0.1 mg/kg (p.o.). Type of test: functional. To be noted: route oral.
For test [12], the system named is Rattus norvegicus. The test is described as follows: Reduction in serum cholesterol in rat model at dose 0.1 mg/kg (p.o.). Format: functional, organism-based. Set-up: dose 0.1 mg/kg.

Take `Oc1ccc(C2=Cc3ccc(O)cc3OC2c2ccc(OCCN3CCCCC3)cc2)cc1` (configuration not stated): the Body weight in the test on Rattus norvegicus [1] worked out at 287 g; in the test with Rattus norvegicus [2], 334 g; in the test with Rattus norvegicus [10], 284 g; with Rattus norvegicus [11], 314 g. Further, the Serum cholesterol in the test with Rattus norvegicus [3] is 53 mg/dL; in the test on Rattus norvegicus [7], 52.6 mg/dL; in the test on Rattus norvegicus [8], 92.1 mg/dL; in the test on Rattus norvegicus [12], 69.3 mg/dL. Also, the Uterine weight in the test on Rattus norvegicus [4] is given as 105.7 mg; with Rattus norvegicus [5], 132.2 mg; with Rattus norvegicus [6], 124.2 mg; in the test on Rattus norvegicus [9], 151 mg.
In the case of `CC1=C(c2ccc(O)cc2)C(c2ccc(OCCN3CCCCC3)cc2)Oc2cc(O)ccc21` (configuration not stated), the Body weight with Rattus norvegicus [1] turned out to be 295 g; in the test on Rattus norvegicus [2], 306 g; in the test on Rattus norvegicus [10], 302 g; in the test with Rattus norvegicus [11], 281 g. The Serum cholesterol with Rattus norvegicus [3] was 57.4 mg/dL; in the test on Rattus norvegicus [7], 42.3 mg/dL; in the test on Rattus norvegicus [8] it was 79 mg/dL; in the test with Rattus norvegicus [12], 69.8 mg/dL. Moreover, the Uterine weight worked out at 128.2 mg with Rattus norvegicus [4], 160.2 mg with Rattus norvegicus [5], 135.2 mg in the test on Rattus norvegicus [6] and 134.2 mg in the test with Rattus norvegicus [9].
As to `C#C[C@]1(O)CC[C@H]2[C@@H]3CCc4cc(O)ccc4[C@H]3CC[C@@]21C` [ETHINYL ESTRADIOL], the Uterine weight with Rattus norvegicus [5] was 319 mg. Also, the Body weight in the test on Rattus norvegicus [11] is 274 g. The same compound returned a Serum cholesterol with Rattus norvegicus [12] of 37.1 mg/dL.
